We go through 2 compounds from PMC4977753, “Inhibition of ADAM10 promotes the clearance of Aβ across the BBB by reducing LRP1 ectodomain shedding” (Fluids and Barriers of the CNS, 2016).

The subject of data set [1] is PSAPP mice. Put plainly: Aβ, soluble LRP1 and sAPPα levels in PSAPP mice following ADAM10 inhibition. The format is in vivo, mouse. The note with it: 200 mg/kg i.p. once per day for 5 days. As for the experimental part:
PSAPP mice at 35 weeks of age were injected intraperitoneally with 200 mg/kg of GI254023X or vehicle (DMSO) once per day for 5 consecutive days. At this age, PSAPP mice display elevated levels of Aβ peptides in the brain [22]. […] One hour after the final injection, the mice were euthanatized and plasma and brain tissue were collected. The right hemisphere was used to examine the levels of soluble and insoluble Aβ40 and Aβ42 in the brain. Briefly, the hemispheres were homogenized by sonication in 700 μl lysis buffer [M-PER + 1 % EDTA +0.2 % PMSF (Thermo Scientific, USA)] supplemented with Halt protease and phosphatase inhibitor cocktail (Thermo Scientific, USA) on ice before centrifugation at 14000g for 30 min at 4 °C. 100 μl of the resulting supernatant was mixed with 5 M guanidine in TRIS buffer resulting in the guanidine soluble (GS) fraction. For the guanidine insoluble (GI) fraction, 100 μl of the guanidine stock was combined with the original tissue pellet. Both GS and GI fractions were subsequently incubated at room temperature for 1 h and were mixed every 15 min. All samples were stored at −80 °C prior to analysis. Quantification of Aβ40 and Aβ42 in the GS, GI, and plasma fractions was determined using an ELISA for human Aβ40 and Aβ42 (Invitrogen, USA) and expressed as ng of Aβ per μg total protein. The left hemisphere was used to examine the levels of soluble LRP1 in the brain. Here, the hemisphere was homogenized using a Dounce homogenizer in ice cold in HBSS using the same procedure as the in vivo LRP1 shedding studies above. LRP1 levels in the soluble brain fraction and plasma were assessed using a mouse ELISA for LRP1 (Cedar Lane Labs, USA). Soluble brain LRP1 was normalized to the total protein content in the brain homogenate as determined by the BCA protein assay (Thermo Scientific, USA). Soluble brain LRP1 levels were expressed as ng of LRP1 per mg protein. Plasma LRP1 levels were expressed as ng/ml. In addition, sAPPα levels were examined in the brain homogenate of these same animals using an ELISA for sAPPα (IBL international, USA). The sAPPα levels were normalized to the total protein content in the brain homogenate as determined by the BCA protein assay and expressed as ng of sAPPα per mg protein.
Fig. 4 LRP1 shedding brain and plasma following ADAM10 modulation in a mouse model of AD. The ADAM10 inhibitor GI254023X (200 mg/kg) or vehicle (DMSO) was administered via intraperitoneal injection once per day for five consecutive days to PSAPP mice (35 weeks of age). One hour after the final injection, the brains and plasma was collected and the soluble brain fraction a and the plasma b was probed for LRP using an ELISA. Values represent mean ± SEM (n = 8–9 [soluble brain LRP1] or 5 [soluble plasma LRP1]) and are expressed as the amount of LRP per mg total protein or per ml. *p < 0.05 as determined by an unpaired t test
Fig. 5 Levels of sAPPα in the brain following ADAM10 modulation in a mouse model of AD. PSAPP mice (35 weeks of age) were treated in an acute 5-day treatment paradigm with ADAM10 inhibitor GI254023X (200 mg/kg) or vehicle (DMSO) which were administered via intraperitoneal injection. One hour after the final treatment, the brains were collected and sAPPα in the whole brain homogenate was probed using an sAPPα ELISA. Values represent mean ± SEM (n = 8–9) and are expressed as the amount of sAPPα per mg total protein. Statistical significance determined by an unpaired t test
Fig. 6 Aβ plasma levels following ADAM10 modulation in a mouse model of AD. The ADAM10 inhibitor GI254023X (200 mg/kg) or vehicle (DMSO) was administered via intraperitoneal injection once per day for five consecutive days to PSAPP mice (35 weeks of age). One hour after the final injection, the plasma was collected and probed for a Aβ40 and b Aβ42 by ELISA. Values represent mean ± SEM (n = 8–9) and are expressed as the amount of Aβ40 or Aβ42 per ml of plasma. […]

The subject of data set [2] is PSAPP mice. Put plainly: Tolerability of the GI254023X treatment regimen in PSAPP mice. The format is in vivo. The note with it: 200 mg/kg i.p. once per day for 5 days. On the procedure: PSAPP mice at 35 weeks of age were injected intraperitoneally with 200 mg/kg of GI254023X or vehicle (DMSO) once per day for 5 consecutive days. At this age, PSAPP mice display elevated levels of Aβ peptides in the brain [22]. […] One hour after the final injection, the mice were euthanatized and plasma and brain tissue were collected. The right hemisphere was used to examine the levels of soluble and insoluble Aβ40 and Aβ42 in the brain. […] Quantification of Aβ40 and Aβ42 in the GS, GI, and plasma fractions was determined using an ELISA for human Aβ40 and Aβ42 (Invitrogen, USA) and expressed as ng of Aβ per μg total protein. […] LRP1 levels in the soluble brain fraction and plasma were assessed using a mouse ELISA for LRP1 (Cedar Lane Labs, USA). Soluble brain LRP1 was normalized to the total protein content in the brain homogenate as determined by the BCA protein assay (Thermo Scientific, USA). Soluble brain LRP1 levels were expressed as ng of LRP1 per mg protein. Plasma LRP1 levels were expressed as ng/ml. […] The sAPPα levels were normalized to the total protein content in the brain homogenate as determined by the BCA protein assay and expressed as ng of sAPPα per mg protein.

Data set [3] concerns LRP1 shedding in human brain endothelial cells (HBMEC). Kind of data set: In vitro LRP1 shedding in HBMEC monolayers (LRP1 ELISA of extracellular media). The format is cell-based. The note with it: 48 h, 37 °C. As for the experimental part:
Human Brain Microvessel endothelial cells (HBMECs) (ScienCell, USA) were seeded at 50,000 cells per cm^2 onto fibronectin-coated 6-well plates as previously described by our group. When approximately 90 % confluent, cells were treated with Aβ42 (2 μM) or both Aβ42 and the ADAM10-selective inhibitor GI254023X (1 μM) (Sigma-Aldrich, USA) and incubated at 37 °C for 48 h. […] After the 48 h incubation, the extracellular media was collected and the level of soluble LRP1 was assessed using an ELISA for LRP1 (Cat# SEB010Hu, Cedar Lane Labs, USA).
Fig. 1 LRP1shedding in human brain endothelial cells (HBMEC) following ADAM10 inhibition. HBMEC monolayers were exposed to human Aβ42 (2 μM) alone, Aβ42 (2 μM) and the ADAM10 inhibitor GI254023X (1 μM) for 48 h at 37 °C. LRP shedding was assessed by examining LRP content in the extracellular media using an LRP1 ELISA. Values represent mean ± SEM (n = 3) and are expressed as ng of extracellular LRP1 per ml of media. *p < 0.05 as determined by one-way ANOVA followed by Tukey’s post hoc analysis
A general note: ELISA stands for enzyme-linked immunosorbent assay.

Data set [4] deals with in vitro BBB model (HBMEC monolayer). Kind of data set: Fluorescein-Aβ42 transit across an in vitro BBB model. The format is cell-based, human. As to conditions: fluorescein-Aβ42 2 μM basolateral, 60 min, 37 °C, basolateral-to-apical, n = 3. As for the experimental part: The impact of ADAM10 on Aβ42 transcytosis was assessed using an in vitro BBB model previously described by our group. HBMECs were seeded onto fibronectin-coated 24-well membrane inserts forming a polarized monolayer representing the BBB. Aβ transcytosis across the BBB was assessed by exposing the basolateral side (“brain”) to 2 μM fluorescein-Aβ42 (rPeptide, USA) and treating the apical side (“blood”) with the ADAM10-selective inhibitor GI254023X (0.1–1 μM). After 60 min of incubation at 37 °C, samples were collected from the apical compartment to assess the basolateral-to-apical transcytosis of fluorescein-Aβ across the BBB model.
Fig. 2 Fluorescin-Aβ42 transit across an in vitro BBB model following ADAM10 inhibition. Fluorescin-Aβ42 (2 μM) was exposed to the basolateral (“brain”) side of the in vitro BBB model, while various concentrations of the ADAM10 inhibitor GI254023X (0, 0.1, 1, and 10 μM) were exposed to the apical (“blood”) compartment. Following incubation at 37 °C, samples were collected from the […] at 60 min to assess the basolateral-to-apical transcytosis of fluorescin-Aβ42 across the BBB model. Values represent mean ± SEM (n = 3) and are expressed as the percentage change from control conditions. *p < 0.05; **p < 0.01; ***p < 0.001 as determined by one-way ANOVA followed by Tukey’s post hoc analysis

For data set [5] the test system is unchanged. Put plainly: Permeability of paracellular marker Lucifer yellow-dextran across the in vitro BBB model (integrity control). The note with it: 10 kDa Lucifer yellow-dextran, any of the GI254023X concentrations, data not shown. The class given is cell-based, human.
Another data set has as its system mice. As to conditions: 200 mg/kg i.p. once per day for 5 consecutive days; cited from earlier work. As for the experimental part: PSAPP mice at 35 weeks of age were injected intraperitoneally with 200 mg/kg of GI254023X or vehicle (DMSO) once per day for 5 consecutive days. At this age, PSAPP mice display elevated levels of Aβ peptides in the brain [22]. […] One hour after the final injection, the mice were euthanatized and plasma and brain tissue were collected. The right hemisphere was used to examine the levels of soluble and insoluble Aβ40 and Aβ42 in the brain. ...

The mark [6] stands for this setting: PSAPP mice, guanidine insoluble fraction, ELISA, n = 8-9, not statistically significant.
[7] abbreviates: PSAPP mice, guanidine soluble fraction, ELISA, n = 8-9, not statistically significant.

For `CNC(=O)[C@@H](NC(=O)[C@H](CCCc1ccccc1)[C@H](C)N(O)C=O)C(C)(C)C` [GI254023X], the “reduction of soluble LRP1 in the brain versus vehicle” value with PSAPP mice [1] (PSAPP mice 35 weeks, 1 h after final injection, soluble brain fraction, ELISA, n = 8-9, p < 0.05) is 60%. Besides, in the data set on PSAPP mice [1] (setting [6]), the “reduction of insoluble Aβ40 in the brain versus vehicle” value came out at 1.20 fold and the “reduction of insoluble Aβ42 in the brain versus vehicle” value was determined as 1.20 fold. Also, in the data set with PSAPP mice [1] (setting [7]), the “reduction of soluble Aβ40 in the brain versus vehicle” value was 1.15 fold and the “reduction of soluble Aβ42 in the brain versus vehicle” value stood at 1.25 fold. The “LRP1 levels in the plasma versus vehicle” value with PSAPP mice [1] (PSAPP mice, plasma, ELISA, n = 5) is reported as “not significantly different”. Moreover, in the data set with PSAPP mice [1] (PSAPP mice, plasma, ELISA, n = 8-9), the “effect on Aβ42 plasma levels versus vehicle” value was “not significant”. Besides, the “increase of Aβ40 in the plasma versus vehicle” value in the data set with PSAPP mice [1] (PSAPP mice, plasma, ELISA, n = 8-9, significant) is reported as 1.45 fold. Further, the “level of sAPPα in the brain versus vehicle” value in the data set on PSAPP mice [1] (PSAPP mice, whole brain homogenate, sAPPα ELISA, n = 8-9) is “No significant difference”. In addition, in the data set on PSAPP mice [2], the “tolerability of treatment regimen (appearance, behavior, weight loss)” value is “well tolerated”. In addition, the “effect on Aβ42-induced extracellular LRP1 shedding” value in data set [3] (Aβ42 2 μM plus GI254023X 1 μM, n = 3) is on record as “completely abrogated the effect of Aβ42 on shedding”. Moreover, the “transcytosis of fluorescein-Aβ across in vitro BBB model (trend)” value in data set [4] (GI254023X 0.1, 1, 10 μM apical) is “increased following GI254023X treatment in a dose dependent manner”. In data set [4] (significant increases at concentrations higher than 1 μM GI254023X), the “increase of fluorescein-Aβ transcytosis across in vitro BBB model versus control” value was no less than 1.25 fold. The “BBB permeability of the paracellular marker Lucifer yellow-dextran versus control” value in data set [5] is reported as “no significant difference”. In the data set on mice, the “ADAM10 activity in mice under this treatment regime” value is on record as “effectively inhibit ADAM10 activity” and the “tolerability of treatment regime” value is “well tolerated with no adverse effects reported”.
For the compound “Aβ42: human recombinant beta-amyloid 42 peptide, used to induce LRP1 shedding; fluorescein-labeled form used as transport probe”, the “extracellular shedding of LRP1 compared to control conditions” value in data set [3] (Aβ42 2 μM, mean ± SEM n = 3, significant (p < 0.05)) was “twofold”.
